Blank lines part the entries; values can stand above or below the molecule they belong to.
Legend:
[1] = test system: 18GAAA-D1 (NAD+ riboswitch domain 1, WT) (RNA, riboswitch) GGCUUCAACAACCCCGUAGGUGGGGACGAAAGUCAGCGCACCUACUGGAGCC; test: ITC; settings: 50 mM NaCl, 10 mM MgCl2; for Kd: 50 mM HEPES pH 7.0, 25 °C (Figure S7 legend: 20 °C), apparent
[2] = test system: 18GAAA-D1 A11U (RNA, riboswitch) GGCUUCAACAUCCCCGUAGGUGGGGACGAAAGUCAGCGCACCUACUGGAGCC; test: ITC; settings: 50 mM NaCl, 10 mM MgCl2; 50 mM HEPES pH 7.0, 25 °C (Figure S7 legend: 20 °C), apparent
[3] = test system: 18GAAA-D1 C6U/G47A (RNA, riboswitch) GGCUUUAACAACCCCGUAGGUGGGGACGAAAGUCAGCGCACCUACUAGAGCC; test: ITC; settings: 50 mM NaCl, 10 mM MgCl2; 50 mM HEPES pH 7.0, 25 °C; 2 mM ligand stock titrated into 0.1 mM RNA
[4] = test system: 18GAAA-D1 C6G/G47C (RNA, riboswitch) GGCUUGAACAACCCCGUAGGUGGGGACGAAAGUCAGCGCACCUACUCGAGCC; test: ITC; settings: 50 mM NaCl, 10 mM MgCl2; 50 mM HEPES pH 7.0, 25 °C; 2 mM ligand stock titrated into 0.1 mM RNA
[5] = test system: 18GAAA-D1 G23A/C37U (RNA, riboswitch) GGCUUCAACAACCCCGUAGGUGAGGACGAAAGUCAGUGCACCUACUGGAGCC; test: ITC; settings: 50 mM NaCl, 10 mM MgCl2; 50 mM HEPES pH 7.0, 25 °C; 2 mM ligand stock titrated into 0.1 mM RNA
[6] = test system: 18GAAA-D1 C13U/C14U/G36A/G38A (RNA, riboswitch) GGCUUCAACAACUUCGUAGGUGGGGACGAAAGUCAACACACCUACUGGAGCC; test: ITC; settings: 50 mM NaCl, 10 mM MgCl2; 50 mM HEPES pH 7.0, 25 °C; 2 mM ligand stock titrated into 0.1 mM RNA
[7] = test system: 18GAAA-D1 C14G/G36C (RNA, riboswitch) GGCUUCAACAACCGCGUAGGUGGGGACGAAAGUCACCGCACCUACUGGAGCC; test: ITC; settings: 50 mM NaCl, 10 mM MgCl2; 50 mM HEPES pH 7.0, 25 °C; 2 mM ligand stock titrated into 0.1 mM RNA
[8] = test system: 18GAAA-D1 C13G/G38C (RNA, riboswitch) GGCUUCAACAACGCCGUAGGUGGGGACGAAAGUCAGCCCACCUACUGGAGCC; test: ITC; settings: 50 mM NaCl, 10 mM MgCl2; 50 mM HEPES pH 7.0, 25 °C; 2 mM ligand stock titrated into 0.1 mM RNA
[9] = test system: 18GAAA-D1 A8U (RNA, riboswitch) GGCUUCAUCAACCCCGUAGGUGGGGACGAAAGUCAGCGCACCUACUGGAGCC; test: ITC; settings: 50 mM NaCl, 10 mM MgCl2; 50 mM HEPES pH 7.0, 25 °C; 2 mM ligand stock titrated into 0.1 mM RNA
[10] = test system: 18GAAA-D1 A8G (RNA, riboswitch) GGCUUCAGCAACCCCGUAGGUGGGGACGAAAGUCAGCGCACCUACUGGAGCC; test: ITC; settings: 50 mM NaCl, 10 mM MgCl2; 50 mM HEPES pH 7.0, 25 °C; 2 mM ligand stock titrated into 0.1 mM RNA
[11] = test system: 18GAAA-D1 A10G (RNA, riboswitch) GGCUUCAACGACCCCGUAGGUGGGGACGAAAGUCAGCGCACCUACUGGAGCC; test: ITC; settings: 50 mM NaCl, 10 mM MgCl2; 50 mM HEPES pH 7.0, 25 °C; 2 mM ligand stock titrated into 0.1 mM RNA
[12] = test system: 18GAAA-D1 A10C (RNA, riboswitch) GGCUUCAACCACCCCGUAGGUGGGGACGAAAGUCAGCGCACCUACUGGAGCC; test: ITC; settings: 50 mM NaCl, 10 mM MgCl2; 50 mM HEPES pH 7.0, 25 °C; 2 mM ligand stock titrated into 0.1 mM RNA
[13] = test system: 18GAAA-D1 A35C (RNA, riboswitch) GGCUUCAACAACCCCGUAGGUGGGGACGAAAGUCCGCGCACCUACUGGAGCC; test: ITC; settings: 50 mM NaCl, 10 mM MgCl2; 50 mM HEPES pH 7.0, 25 °C; 2 mM ligand stock titrated into 0.1 mM RNA
[14] = test system: 18GAAA-D1 G36C (RNA, riboswitch) GGCUUCAACAACCCCGUAGGUGGGGACGAAAGUCACCGCACCUACUGGAGCC; test: ITC; settings: 50 mM NaCl, 10 mM MgCl2; 50 mM HEPES pH 7.0, 25 °C; 2 mM ligand stock titrated into 0.1 mM RNA
[15] = test system: 18GAAA-D1 G38C (RNA, riboswitch) GGCUUCAACAACCCCGUAGGUGGGGACGAAAGUCAGCCCACCUACUGGAGCC; test: ITC; settings: 50 mM NaCl, 10 mM MgCl2; 50 mM HEPES pH 7.0, 25 °C; 2 mM ligand stock titrated into 0.1 mM RNA
[16] = test system: 18GAAA-D1 G36C/G38C (RNA, riboswitch) GGCUUCAACAACCCCGUAGGUGGGGACGAAAGUCACCCCACCUACUGGAGCC; test: ITC; settings: 50 mM NaCl, 10 mM MgCl2; 50 mM HEPES pH 7.0, 25 °C; 2 mM ligand stock titrated into 0.1 mM RNA
[17] = test system: G36A/G38A/A11Ap domain 1 (RNA, riboswitch, 2-aminopurine at 11) GGCUUCAACAACCCCGUAGGUGGGGACGAAAGUCAACACACCUACUGGAGCC; test: 2-aminopurine fluorescence
[18] = test system: C13U/C14U/G36A/G38A domain 1, Ap variant (RNA, riboswitch, 2-aminopurine (position not given)) GGCUUCAACAACUUCGUAGGUGGGGACGAAAGUCAACACACCUACUGGAGCC; test: 2-aminopurine fluorescence
[19] = test system: 832GAAA-D2 (NAD+ riboswitch domain 2) (RNA, riboswitch) GGUUUCAACAUCCCCGUUCGGCGCUCGAAAGAGGUGGCCGGACUGAAGCC; test: X-ray crystallography, 2.1 Å; settings: Mg2+
[20] = test system: 17delU1A-D1 (NAD+ riboswitch domain 1) (RNA, riboswitch) GGCGCAACAUCCCCGCCGGUUGGGCGCAUUGCACUCCGCGCAGUGAACCGGCUGCGCC; test: X-ray crystallography, 2.80 Å; settings: Mg2+; co-crystallised with U1A protein
[21] = test system: A11Ap domain 1 (RNA, riboswitch, 2-aminopurine at 11) GGCUUCAACAACCCCGUAGGUGGGGACGAAAGUCAGCGCACCUACUGGAGCC; test: 2-aminopurine fluorescence, real time; settings: 100 mM KCl, 50 mM MgCl2; 50 mM KMOPS pH 7.5, 20 °C, 0.5 μM RNA, 0.3 mM ligand
[22] = test system: A11Ap domain 1 (RNA, riboswitch, 2-aminopurine at 11) GGCUUCAACAACCCCGUAGGUGGGGACGAAAGUCAGCGCACCUACUGGAGCC; test: 2-aminopurine fluorescence titration; settings: 100 mM KCl, 50 mM MgCl2; 50 mM KMOPS pH 7.5, 20 °C, 0.5 μM RNA, apparent
[23] = test system: U11Ap domain 2 (RNA, riboswitch, 2-aminopurine at 11) GGUUUCAACAUCCCCGUUCGGCGCUCGAAAGAGGUGGCCGGACUGAAGCC; test: 2-aminopurine fluorescence titration; settings: 100 mM KCl, 50 mM MgCl2; 50 mM KMOPS pH 7.5, 20 °C, 0.5 μM RNA, apparent

Kd [1]: 305 ± 46.4 µM
SMILES: NC(=O)C1=CN([C@@H]2O[C@H](COP(=O)(O)OP(=O)(O)OC[C@H]3O[C@@H](n4cnc5c(N)ncnc54)[C@H](O)[C@@H]3O)[C@@H](O)[C@H]2O)C=CC1

binding ([1]; 50 mM HEPES pH 7.0, 25 °C, 2 mM ligand stock titrated into 0.1 mM RNA): no
SMILES: NC(=O)c1ccc[n+]([C@@H]2O[C@H](COP(=O)([O-])O)[C@@H](O)[C@H]2O)c1

Kd [1]: 90.2 ± 8.6 µM
SMILES: Nc1ncnc2c1ncn2[C@@H]1O[C@H](COP(=O)(O)OP(=O)(O)OP(=O)(O)O)[C@@H](O)[C@H]1O

Kd [1]: 127 ± 9.5 µM
Kd [2]: 111 ± 24.6 µM
binding [3]: no
binding [4]: no
binding [5]: no
binding [6]: no
binding [7]: no
binding [8]: no
binding [9]: no
binding [10]: no
binding [11]: no
binding [12]: no
binding [13]: no
binding [14]: no
binding [15]: no
binding [16]: no
binding [17]: yes
binding [18]: no
binding [19]: yes
binding [20]: yes
binding [21]: yes
SMILES: NC(=O)c1ccc[n+]([C@@H]2O[C@H](COP(=O)(O)OP(=O)(O)OC[C@H]3O[C@@H](n4cnc5c(N)ncnc54)[C@H](O)[C@@H]3O)[C@@H](O)[C@H]2O)c1

Kd [1]: 95.3 ± 0.3 µM
binding [17]: yes
KD^ADP [22]: 94 ± 3 µM
KD^ADP [23]: 3400 ± 500 µM
SMILES: Nc1ncnc2c1ncn2[C@@H]1O[C@H](COP(=O)(O)OP(=O)(O)O)[C@@H](O)[C@H]1O
